Test results published in paper PMC12735778, “Purification and Biochemical Characterization of Polyphenol Oxidase from Falcaria vulgaris Bernh” (Molecules, 2025).
Marks after values point to notes of the source that are not given here.

Tests used:
Medlar PPO = system: Medlar PPO; design: method as in doi:10.1016/S0308-8146(01)00359-4; details: substance as substrate, ref [51], cited from earlier work; for Vmax: asterisked values
[1] = system: PPO from Laccaria laccata (LacPPO); design: method as in doi:10.1111/jfbc.12605; details: substance as substrate; ref [43]; cited from earlier work
PPO from Chinese parsley = system: PPO from Chinese parsley; design: method as in PMID 30263491; details: substance as substrate; ref [50]; cited from earlier work
PPO from Sarali plum [2] = system: PPO from Sarali plum; design: method as in doi:10.1007/s11694-024-02663-y; details: substance as substrate; ref [39]; cited from earlier work
[3] = system: polyphenol oxidase (PPO) from sickleweed; experiment: Substrate kinetics of sickleweed PPO (Lineweaver-Burk); type: biochemical, Falcaria vulgaris Bernh.; details: substance as substrate; optimum pH and temperature
Method: (§1) PPO activity was determined by measuring the increase in absorbance at 496 nm for 4-methylcatechol and 500 nm for catechol and DHPPA with a UV–Vis spectrophotometer. PPO activity was detected by the increment in absorbance in 1 min by adding 100 μL of the substrate (100 mM), 100 μL of 3-Methyl-2-benzothiazolinone hydrazone (MBTH, 10 mM), 20 μL of Dimethylformamide (DMF), 680 μL of 50 mM pH 5.0 acetate buffer, and finally 100 μL of the enzyme. The blank contains all solutions, excluding the enzyme. The enzyme unit is defined as the amount of the enzyme producing an absorbance increase of 0.001 per minute in 1 mL of the reaction mixture. The specific activity of PPO was defined as units per mg of protein [64].
To determine substrate specificity, catechol (0.2–20 mM), 4-methylcatechol (0.2–20 mM), and DHPPA (0.2–20 mM) concentrations were studied. Enzyme activity was carried out at optimum temperature and pH. The kinetic data were analyzed in terms of 1/activity (1/V) and 1/substrate concentration ([S]). The Michaelis-Menten constant (Km) and the maximum velocity (Vmax) were computed by plotting the Lineweaver-Burk graph. The catalytic efficiency ratio (Vmax/Km) was used as a criterion to evaluate substrate specificity.

PPO from butter lettuce = system: PPO from butter lettuce; design: method as in doi:10.1016/j.foodchem.2007.07.068; details: substance as substrate; ref [38]; cited from earlier work
[4] = system: PPO from persimmon fruits; design: method as in doi:10.1016/j.foodchem.2003.07.022; details: substance as substrate, ref [47], cited from earlier work; for Vmax: asterisked values
PPO from purslane = system: PPO from purslane; design: method as in doi:10.1590/1678-457x.03216; details: substrate catechol; ref [21]; cited from earlier work
[5] = system: PPO from broccoli florets; design: method as in doi:10.1016/j.foodchem.2007.05.012; details: substrate 4-methylcatechol; ref [61]; cited from earlier work
PPO from tea leaf = system: PPO from tea leaf; design: method as in doi:10.1007/s11694-019-00264-8; details: substrate catechol; ref [40]; cited from earlier work
PPO from Sarali plum [6] = system: PPO from Sarali plum; design: method as in doi:10.1007/s11694-024-02663-y; details: substrate 4-methylcatechol; ref [39]; cited from earlier work
[7] = system: polyphenol oxidase (PPO) from sickleweed; experiment: Inhibition of PPO purified from sickleweed, 4-methylcatechol substrate; type: biochemical, Falcaria vulgaris Bernh.; details: substrate 4-methylcatechol; for Inhibition type / Ki: Lineweaver-Burk plots; for IC50: optimum conditions
Method: as §1
The common inhibitors of PPO were preferred to study the inhibitory effects on PPO activity. For the 4-methylcatechol substrate, sodium metabisulphite (0.005–0.1 mM), citric acid (5–60 mM), and ascorbic acid (0.005–0.04 mM) inhibitors were utilized to determine enzyme activities under optimum conditions. The half maximal inhibitory concentration (IC50), which halves the enzyme activity, was calculated using the graph of percentage residual activity (%) versus inhibitor concentration (enzyme activity in the absence of inhibitor was accepted as one hundred percent). Then, enzyme activities were studied at five substrate concentrations and three inhibitor concentrations under optimum conditions. The Lineweaver-Burk graphs were drawn by calculating 1/V and 1/[S] values with the obtained data. From these graphs, inhibition constant (Ki) values were calculated for each inhibitor, and the inhibition type was determined.

SMILES	Vmax (Medlar PPO)	Km (Medlar PPO) [mM]	Km [1] [mM]	Km (PPO from Chinese parsley) [mM]	Vmax (PPO from Chinese parsley) [EU·mL^−1·min^−1]	Km (PPO from Sarali plum [2]) [mM]	Vmax (PPO from Sarali plum [2]) [EU·mL^−1·min^−1]	Km [3] [mM]	Vmax [3]	Km (PPO from butter lettuce) [mM]	Vmax (PPO from butter lettuce) [EU·mL^−1·min^−1]	Vmax [4]	Km [4] [mM]	Inhibition type (PPO from purslane)	Ki (PPO from purslane) [µM]	Inhibition type [5]	Ki [5] [µM]	Inhibition type [7]	Ki [7] [µM]	IC50 [7] [µM]	other results
Cc1ccc(O)c(O)c1 [4-Methylcatechol, 4-methylcatechol]	130 * μM/min	7.5	0.4	37.4	1428.57	4.75 ± 0.66	2333.33 ± 288.68	2	5000 EU·mL^−1·min^−1	1 ± 0.09	5405 ± 4	49.5 * μM/min	14.6								
O=C1O[C@H]([C@@H](O)CO)C(O)=C1O [Ascorbic acid, ascorbic acid]														Noncompetitive	360	Noncompetitive	88	Competitive	10.1	26	IC50 (PPO from tea leaf): 69.3 µM; Inhibition type (PPO from tea leaf): Competitive; Ki (PPO from tea leaf): 32.7 µM; IC50 (PPO from Sarali plum [6]): 38 ± 1 µM; Inhibition type (PPO from Sarali plum [6]): Competitive; Ki (PPO from Sarali plum [6]): 9.5 µM
Oc1ccccc1O [Catechol, catechol]	88.0 * μM/min	5.7	0.25	31	2000	1.16 ± 0.12	914.14 ± 83.45	5	10,000 EU·mL^−1·min^−1	3.2 ± 0.01	4081 ± 8	55.2 * μM/min	12.4								
O=C(O)CC(O)(CC(=O)O)C(=O)O [Citric acid, citric acid]														Uncompetitive	4470	Noncompetitive	74	Competitive	8370	32000	Ki ([7]; listed as citric acid): 8730 µM
O=C(O)CCc1ccc(O)c(O)c1 [DHPPA, 3,4-Dihydroxyphenylpropionic acid]	7.2 * μM/min	1.9						11.4	14,285.71 EU·mL^−1·min^−1			17.2 * μM/min	12.8								
O=S(O)S(=O)(=O)O [Sodium metabisulfite, sodium metabisulfite]																		Noncompetitive	23.7	27	IC50 (PPO from tea leaf): 21.7 µM; Inhibition type (PPO from tea leaf): Noncompetitive; Ki (PPO from tea leaf): 19.3 µM
